Source: ChEMBL document CHEMBL5335866, “Structure-Based Optimization of Selective and Brain Penetrant CK1δ Inhibitors for the Treatment of Circadian Disruptions” (ACS Med Chem Lett, 2024)
Active and inactive are the calls of the source. The calls are words filed in the database; no cut-off is given here.

Legend:
[1] = Oral bioavailability in C57BL/6 mouse at 30 mg/kg measured for 6 hrs by LC/MS-MS analysis; format: ADME, organism-based; details: in vivo
[2] = Oral bioavailability in Sprague-Dawley rat at 5 mg/kg measured for 24 hrs by LC-MS/MS analysis; format: ADME, organism-based; details: in vivo
[3] = Unbound drug concentration in brain of C57BL/6 mouse at 30 mg/kg, sc measured for 6 hrs by LC/MS-MS analysis; format: ADME, organism-based; details: in vivo
[4] = Intrinsic clearance in rat liver microsomes at 1 uM preincubated for 5 mins followed by NADPH addition measured for 60 mins by LC-MS/MS analysis; format: ADME, Microsome; details: time 65 min, read-out: CLH
[5] = Volume of distribution at steady state in Sprague-Dawley rat at 1 mg/kg, iv measured for 24 hrs by LC-MS/MS analysis; format: ADME, organism-based; details: in vivo, read-out: Vdss
[6] = Cmax in plasma of C57BL/6 mouse at 30 mg/kg, sc measured for 6 hrs by LC/MS-MS analysis; format: ADME, organism-based; parameters: time 6 hrs, dose 30 mg/kg, route sc
[7] = Cmax in brain of C57BL/6 mouse at 30 mg/kg, sc measured for 6 hrs by LC/MS-MS analysis; format: ADME, organism-based; parameters: time 6 hrs, dose 30 mg/kg, route sc
[8] = Intrinsic clearance in mouse liver microsomes at 1 uM preincubated for 5 mins followed by NADPH addition measured for 60 mins by LC-MS/MS analysis; format: ADME, Microsome; details: time 65 min, read-out: CLH
[9] = biological target: Cytochrome P450 2C8 (Homo sapiens, UniProt P10632); assay: Inhibition of CYP2C8 in human liver microsomes incubated for 10 mins in presence of NADPH by LC-MS/MS analysis; format: ADME, Microsome
Cytochrome P450 2C8, sequence (P10632 whole entry): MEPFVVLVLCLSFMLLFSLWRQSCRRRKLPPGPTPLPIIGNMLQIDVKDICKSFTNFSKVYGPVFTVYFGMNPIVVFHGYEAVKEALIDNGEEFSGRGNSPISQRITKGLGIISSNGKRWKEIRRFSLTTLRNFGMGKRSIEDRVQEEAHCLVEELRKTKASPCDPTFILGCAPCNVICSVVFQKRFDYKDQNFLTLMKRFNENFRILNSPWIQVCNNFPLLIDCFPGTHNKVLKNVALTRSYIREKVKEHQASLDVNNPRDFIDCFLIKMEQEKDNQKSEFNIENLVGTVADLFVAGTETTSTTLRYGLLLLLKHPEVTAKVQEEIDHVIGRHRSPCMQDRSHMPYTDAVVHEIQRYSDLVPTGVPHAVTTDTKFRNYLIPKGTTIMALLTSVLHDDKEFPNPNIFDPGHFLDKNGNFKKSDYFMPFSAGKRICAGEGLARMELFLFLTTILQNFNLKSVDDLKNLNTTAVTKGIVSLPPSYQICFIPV

[10] = biological target: Cytochrome P450 1A2 (Homo sapiens, UniProt P05177); assay: Inhibition of CYP1A2 in human liver microsomes incubated for 10 mins in presence of NADPH by LC-MS/MS analysis; format: ADME, Microsome
Cytochrome P450 1A2, sequence (P05177 whole entry): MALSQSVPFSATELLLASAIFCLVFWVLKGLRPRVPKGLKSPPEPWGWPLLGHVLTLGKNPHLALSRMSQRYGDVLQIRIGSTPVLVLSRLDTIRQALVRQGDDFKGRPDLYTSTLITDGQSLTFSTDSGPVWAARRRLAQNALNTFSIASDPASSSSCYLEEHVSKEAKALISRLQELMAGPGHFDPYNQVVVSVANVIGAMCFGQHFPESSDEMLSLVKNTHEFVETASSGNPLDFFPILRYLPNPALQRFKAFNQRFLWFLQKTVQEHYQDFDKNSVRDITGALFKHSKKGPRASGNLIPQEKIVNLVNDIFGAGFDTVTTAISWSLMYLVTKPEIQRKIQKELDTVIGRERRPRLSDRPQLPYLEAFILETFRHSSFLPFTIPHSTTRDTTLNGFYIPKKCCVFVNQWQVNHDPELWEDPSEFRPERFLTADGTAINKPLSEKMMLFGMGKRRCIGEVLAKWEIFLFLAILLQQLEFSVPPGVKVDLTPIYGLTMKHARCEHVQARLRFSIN

[11] = test system: Mus musculus; assay: Effect on circadian rhythms in C57BL/6 mouse assessed as phase shift at 10 to 30 mg/kg, sc qd measured after 1 to 10 days by wheel running assay; format: functional, organism-based; details: dose 10-30 mg/kg, time 1-10 day, tested as the 2H-labelled form
[12] = biological target: Casein kinase I isoform epsilon (Homo sapiens, UniProt P49674); assay: Inhibition of CK1 epsilon (unknown origin)
Casein kinase I isoform epsilon, sequence (P49674 whole entry, canonical isoform): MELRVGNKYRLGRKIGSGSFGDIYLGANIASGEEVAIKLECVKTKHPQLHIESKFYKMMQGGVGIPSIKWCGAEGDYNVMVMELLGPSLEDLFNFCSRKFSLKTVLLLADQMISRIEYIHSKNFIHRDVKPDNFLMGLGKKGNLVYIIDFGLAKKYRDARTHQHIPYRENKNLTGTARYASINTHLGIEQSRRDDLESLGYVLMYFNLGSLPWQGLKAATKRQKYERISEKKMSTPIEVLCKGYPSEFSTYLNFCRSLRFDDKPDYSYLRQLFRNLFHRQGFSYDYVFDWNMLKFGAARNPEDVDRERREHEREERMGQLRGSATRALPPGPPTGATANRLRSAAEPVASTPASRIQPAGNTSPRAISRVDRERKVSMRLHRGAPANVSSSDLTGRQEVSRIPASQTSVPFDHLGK

[13] = Cmax in brain of C57BL/6 mouse at 30 mg/kg, sc measured after 30 mins by LC/MS-MS analysis; format: ADME, organism-based; parameters: time 30 min, dose 30 mg/kg, route sc
[14] = Cmax in Sprague-Dawley rat at 5 mg/kg, po measured for 24 hrs by LC-MS/MS analysis; format: ADME, organism-based; parameters: dose 5 mg/kg, time 24 hrs, route po; details: in vivo
[15] = biological target: Cytochrome P450 2D6 (Homo sapiens, UniProt P10635); assay: Inhibition of CYP2D6 in human liver microsomes incubated for 10 mins in presence of NADPH by LC-MS/MS analysis; format: ADME, Microsome
Cytochrome P450 2D6, sequence (P10635 whole entry): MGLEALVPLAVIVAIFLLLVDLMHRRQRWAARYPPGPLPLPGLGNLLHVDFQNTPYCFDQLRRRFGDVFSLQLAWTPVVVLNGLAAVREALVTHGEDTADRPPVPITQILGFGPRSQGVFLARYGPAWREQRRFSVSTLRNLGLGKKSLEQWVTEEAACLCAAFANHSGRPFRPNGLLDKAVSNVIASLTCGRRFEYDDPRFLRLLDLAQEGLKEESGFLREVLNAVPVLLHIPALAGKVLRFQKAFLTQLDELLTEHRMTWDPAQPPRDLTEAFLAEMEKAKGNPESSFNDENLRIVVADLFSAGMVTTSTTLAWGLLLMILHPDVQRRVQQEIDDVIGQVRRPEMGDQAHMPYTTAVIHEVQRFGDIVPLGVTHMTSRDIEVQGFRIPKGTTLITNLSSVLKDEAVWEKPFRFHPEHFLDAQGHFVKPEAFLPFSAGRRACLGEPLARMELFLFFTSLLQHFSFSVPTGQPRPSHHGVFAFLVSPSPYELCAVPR

[16] = biological target: Cytochrome P450 3A4 (Homo sapiens, UniProt P08684); assay: Inhibition of CYP3A4 in human liver microsomes using midazolam as substrate incubated for 5 mins in presence of NADPH by LC-MS/MS analysis; format: ADME, Microsome
Cytochrome P450 3A4, sequence (P08684 whole entry): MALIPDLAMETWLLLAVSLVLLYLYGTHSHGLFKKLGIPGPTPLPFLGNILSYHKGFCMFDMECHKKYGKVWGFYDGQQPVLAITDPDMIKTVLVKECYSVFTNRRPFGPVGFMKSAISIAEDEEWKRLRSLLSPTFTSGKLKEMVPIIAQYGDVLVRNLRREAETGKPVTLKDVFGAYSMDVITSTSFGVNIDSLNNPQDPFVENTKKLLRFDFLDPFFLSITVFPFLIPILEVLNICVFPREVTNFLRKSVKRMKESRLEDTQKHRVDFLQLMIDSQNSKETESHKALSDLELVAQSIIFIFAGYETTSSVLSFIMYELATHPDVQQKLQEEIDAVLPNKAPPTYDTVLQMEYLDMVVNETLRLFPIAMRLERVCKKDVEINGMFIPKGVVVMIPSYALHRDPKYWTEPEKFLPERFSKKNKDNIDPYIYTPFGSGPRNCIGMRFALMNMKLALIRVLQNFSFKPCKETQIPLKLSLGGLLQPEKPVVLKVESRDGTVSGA

[17] = Oral bioavailability in C57BL/6 mouse at 5 mg/kg measured for 6 hrs by LC/MS-MS analysis; format: ADME, organism-based; details: in vivo
[18] = test system: Mus musculus; assay: Effect on circadian rhythms in C57BL/6 mouse assessed as phase shift at 30 mg/kg, sc qd measured after 4 to 10 days by wheel running assay; format: functional, organism-based; details: time 4-10 day
[19] = biological target: Cytochrome P450 2C9 (Homo sapiens, UniProt P11712); assay: Inhibition of CYP2C9 in human liver microsomes incubated for 10 mins in presence of NADPH by LC-MS/MS analysis; format: ADME, Microsome
Cytochrome P450 2C9, sequence (P11712 whole entry): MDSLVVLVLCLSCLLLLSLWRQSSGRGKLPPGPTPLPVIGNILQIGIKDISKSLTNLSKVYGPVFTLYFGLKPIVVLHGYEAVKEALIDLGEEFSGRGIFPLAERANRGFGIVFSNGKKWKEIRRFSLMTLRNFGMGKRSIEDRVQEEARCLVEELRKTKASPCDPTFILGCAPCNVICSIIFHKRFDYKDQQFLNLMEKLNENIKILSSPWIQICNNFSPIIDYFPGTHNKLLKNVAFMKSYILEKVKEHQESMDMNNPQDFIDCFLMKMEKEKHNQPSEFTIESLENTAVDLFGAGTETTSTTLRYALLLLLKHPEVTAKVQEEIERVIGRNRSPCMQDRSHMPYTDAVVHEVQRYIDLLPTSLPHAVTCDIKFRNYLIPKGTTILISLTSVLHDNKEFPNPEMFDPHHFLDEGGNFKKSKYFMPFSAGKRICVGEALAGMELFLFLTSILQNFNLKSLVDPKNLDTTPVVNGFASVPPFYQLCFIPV

[20] = Intrinsic clearance in dog liver microsomes at 1 uM preincubated for 5 mins followed by NADPH addition measured for 60 mins by LC-MS/MS analysis; format: ADME, Canis lupus familiaris, Microsome; details: time 65 min, read-out: CLH
[21] = Cmax in plasma of C57BL/6 mouse at 30 mg/kg, sc measured after 30 mins by LC/MS-MS analysis; format: ADME, organism-based; parameters: time 30 min, dose 30 mg/kg, route sc
[22] = Intrinsic clearance in cynomolgus monkey liver microsomes at 1 uM preincubated for 5 mins followed by NADPH addition measured for 60 mins by LC-MS/MS analysis; format: ADME, Macaca fascicularis, Microsome; details: time 65 min, read-out: CLH
[23] = Clearance in Sprague-Dawley rat at 1 mg/kg, iv measured for 24 hrs by LC-MS/MS analysis; format: ADME, organism-based; details: in vivo
[24] = biological target: TRAF2 and NCK-interacting protein kinase (Homo sapiens, UniProt Q9UKE5); assay: Inhibition of TNIK (unknown origin)
[25] = Half life in Sprague-Dawley rat at 5 mg/kg, po measured for 24 hrs by LC-MS/MS analysis; format: ADME, organism-based; details: in vivo
[26] = biological target: Casein kinase I isoform alpha (Homo sapiens, UniProt P48729); assay: Inhibition of CK1 alpha (unknown origin)
Casein kinase I isoform alpha, sequence (P48729 whole entry, canonical isoform): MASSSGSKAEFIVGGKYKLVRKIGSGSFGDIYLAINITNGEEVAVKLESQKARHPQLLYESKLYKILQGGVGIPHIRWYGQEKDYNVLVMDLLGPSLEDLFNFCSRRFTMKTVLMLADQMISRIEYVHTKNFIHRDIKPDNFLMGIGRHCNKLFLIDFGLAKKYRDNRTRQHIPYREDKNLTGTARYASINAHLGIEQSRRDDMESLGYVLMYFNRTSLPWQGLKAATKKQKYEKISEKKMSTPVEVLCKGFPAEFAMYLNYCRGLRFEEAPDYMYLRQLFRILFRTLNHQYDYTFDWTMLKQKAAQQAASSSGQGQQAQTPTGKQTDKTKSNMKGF

[27] = AUC (infinity) in Sprague-Dawley rat at 5 mg/kg, po measured for 24 hrs by LC-MS/MS analysis; format: ADME, organism-based; parameters: time 24 hrs, dose 5 mg/kg, route po; details: in vivo
[28] = Unbound drug concentration in plasma of C57BL/6 mouse at 30 mg/kg, sc measured for 6 hrs by LC/MS-MS analysis; format: ADME, organism-based; details: in vivo
[29] = Ratio of unbound fraction in brain to plasma of C57BL/6 mouse at 30 mg/kg, sc measured for 6 hrs by LC/MS-MS analysis; format: ADME, organism-based; details: read-out: K(p,uu,brain)
[30] = Unbound Cmax in Sprague-Dawley rat at 5 mg/kg, po measured for 24 hrs by LC-MS/MS analysis; format: ADME, organism-based; details: in vivo
[31] = Effect on circadian rhythms in C57BL/6 mouse assessed as phase delay in time at 30 mg/kg, sc qd for 10 days by wheel running assay; format: functional; details: time 10 day
[32] = biological target: Cytochrome P450 2C19 (Homo sapiens, UniProt P33261); assay: Inhibition of CYP2C19 in human liver microsomes incubated for 10 mins in presence of NADPH by LC-MS/MS analysis; format: ADME, Microsome
Cytochrome P450 2C19, sequence (P33261 whole entry): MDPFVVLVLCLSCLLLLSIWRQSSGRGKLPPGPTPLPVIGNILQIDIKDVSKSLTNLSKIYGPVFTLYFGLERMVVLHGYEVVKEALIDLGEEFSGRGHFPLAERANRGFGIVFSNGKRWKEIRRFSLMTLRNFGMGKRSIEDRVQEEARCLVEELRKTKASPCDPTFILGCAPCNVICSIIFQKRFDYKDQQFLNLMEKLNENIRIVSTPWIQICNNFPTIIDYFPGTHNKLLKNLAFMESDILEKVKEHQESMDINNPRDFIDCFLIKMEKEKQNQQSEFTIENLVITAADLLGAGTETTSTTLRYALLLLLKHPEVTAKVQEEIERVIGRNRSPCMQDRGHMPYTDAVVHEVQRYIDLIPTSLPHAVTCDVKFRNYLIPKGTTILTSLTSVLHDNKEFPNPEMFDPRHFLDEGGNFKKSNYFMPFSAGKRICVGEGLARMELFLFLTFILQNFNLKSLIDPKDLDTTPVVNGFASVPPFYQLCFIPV

[33] = Apparent permeability across apical to basal side in MDCK cells expressing MDR1 at 5 uM incubated for 60 mins by LC/MS/MS analysis; format: ADME, cell-based, Canis lupus familiaris, MDCK1; details: dog
[34] = Cmax in C57BL/6 mouse at 5 mg/kg, po measured for 6 hrs by LC/MS-MS analysis; format: ADME, organism-based; parameters: dose 5 mg/kg, time 6 hrs, route po; details: in vivo
[35] = test system: Brain; assay: Ex vivo receptor occupancy at CK1 delta in brain of C57BL/6 mouse at 30 mg/kg, sc measured for 6 hrs by autoradiography relative to control; format: functional
[36] = Intrinsic clearance in human liver microsomes at 1 uM preincubated for 5 mins followed by NADPH addition measured for 60 mins by LC-MS/MS analysis; format: ADME, Microsome; details: time 65 min, read-out: CLH
[37] = Cmax in brain of C57BL/6 mouse at 30 mg/kg, sc measured after 15 mins by LC/MS-MS analysis; format: ADME, organism-based; parameters: time 15 min, dose 30 mg/kg, route sc
[38] = Cmax in plasma of C57BL/6 mouse at 30 mg/kg, sc measured after 15 mins by LC/MS-MS analysis; format: ADME, organism-based; parameters: dose 30 mg/kg, time 15 min, route sc

Row | bioavailability [2] [%] | Drug uptake(free) [3] [nM] | microsomal CLint at 1 µM [4] [µL/min/mg] | Vd [5] [L/kg] | Cmax [6] [ng/mL] | Cmax [7] [ng/g] | microsomal CLint at 1 µM [8] [µL/min/mg] | IC50 [9] [µM] | IC50 [10] [µM] | IC50 [12] [µM] | Cmax [14] [nM] | IC50 [15] [µM] | IC50 [16] [µM] | IC50 [19] [µM] | microsomal CLint at 1 µM [20] [µL/min/mg] | microsomal CLint at 1 µM [22] [µL/min/mg] | clearance [23] [mL/min/kg] | half-life [25] [min] | IC50 [26] [µM] | AUC(0-inf) [27] [ng·h/mL] | SMILES | further results
1 | 19 | 668 | 17.2 | 1.2 | 4110 | 847 | 22.7 | > 20 | > 20 | 0.093 | 400 | > 20 | > 20 | > 20 | < 7.7 | 12.3 | 104 | 60 | 0.79 | 150 | CC1(C)Cn2nc(-c3ccc(F)cn3)c(-c3ccnc4[nH]ncc34)c2CO1 | bioavailability [1]: 53%; Activity [11]: Active; Cmax [13]: 2300 nM; bioavailability [17]: 4%; Activity [18]: Active; Cmax [21]: 11300 nM; IC50 [24]: 3.2 µM; Cp(f) [28]: 2899 nM; Kp uu at 6 h [29]: 0.23; fCmax [30]: 0.15 µM; Time [31]: 0.83 h; IC50 [32]: > 20 µM; Papp A→B at 1 h, 5 µM [33]: 7.4 ×10⁻⁶ cm/s; Cmax [34]: 700 nM; Occ [35]: 56%
2 | 85 | 789 | 8.5 | 1 | 8850 | 1350 | < 7.7 | > 20 | > 20 | 0.11 | 3000 | > 20 | > 20 | > 20 | < 7.7 | < 7.7 | 44 | 48 | 0.41 | 1940 | [2H]C([2H])([2H])C1(C([2H])([2H])[2H])Cn2nc(-c3ccc(F)cn3)c(-c3ccnc4[nH]ncc34)c2CO1 | microsomal CLint at 1 µM [36]: < 7.7 µL/min/mg; Cmax [37]: 3700 nM; Cmax [38]: 23900 nM; Cp(f) [28]: 6117 nM; Kp uu at 6 h [29]: 0.13; fCmax [30]: 1.1 µM; Time [31]: 1.25 h; IC50 [32]: > 20 µM; Papp A→B at 1 h, 5 µM [33]: 4.8 ×10⁻⁶ cm/s; Occ [35]: 60%
